Consider 40 molecules from patent US20170326125A1, “MULTISUBSTITUTED AROMATIC COMPOUNDS AS INHIBITORS OF THROMBIN” (VERSEON CORPORATION, priority 2016, published 2017).

The assay addresses T1, Human thrombin (Homo sapiens, UniProt P00734).
T1 construct: purchased Haematologic Technologies Inc
Description: Inhibition of the protease activity of thrombin (chromogenic substrate S-2238). Format: biochemical. Particulars: inhibition of the protease activity of thrombin.
`O=C(c1ccoc1)n1nc(-c2ccncc2)nc1NCc1ccc(F)cc1` [Cmpd 214, N-[(4-fluorophenyl)methyl]-1-[(furan-3-yl)carbonyl]-3-(pyridin-4-yl)-1H-1,2,4-triazol-5-amine] had a half-maximal inhibitory concentration (IC50) of less than 100 nM.
As to `O=C(N1CCCCC1)n1nc(-c2cccnc2)nc1NCc1ccc(F)cc1` [Cmpd 215, N-[(4-fluorophenyl)methyl]-1-[(piperidin-1-yl)carbonyl]-3-(pyridin-3-yl)-1H-1,2,4-triazol-5-amine], the IC50 was more than 1000 nM.
`CCCn1nc(-c2ccccn2)nc1NCc1ccc(F)cc1` [Cmpd 216, N-[(4-fluorophenyl)methyl]-1-propyl-3-(pyridin-2-yl)-1H-1,2,4-triazol-5-amine] gave an IC50 of more than 1000 nM.
The molecule `CCCn1nc(NCc2ccc(F)cc2)nc1-c1ccccn1` [Cmpd 217, N-[(4-fluorophenyl)methyl]-1-propyl-5-(pyridin-2-yl)-1H-1,2,4-triazol-3-amine] showed a 50% inhibitory concentration (IC50) of more than 1000 nM.
`Cc1c(-c2ccccc2)n[nH]c1N(Cc1ccc(F)cc1)C(=O)C(C)(C)C` [Cmpd 218, N-[(4-fluorophenyl)methyl]-2,2-dimethyl-N-(4-methyl-3-phenyl-1H-pyrazol-5-yl)propanamide] came in with an IC50 of more than 1000 nM.
In the case of `O=C(c1ccsc1)n1nc(-c2ccccn2)nc1NCc1ccc(F)cc1` [Cmpd 219, N-[(4-fluorophenyl)methyl]-3-(pyridin-2-yl)-1-[(thiophen-3-yl)carbonyl]-1H-1,2,4-triazol-5-amine] it was less than 100 nM; in that of `O=C(c1ccsc1)n1nc(-c2cccnc2)nc1NCc1ccc(F)cc1` [Cmpd 220, N-[(4-fluorophenyl)methyl]-3-(pyridin-3-yl)-1-[(thiophen-3-yl)carbonyl]-1H-1,2,4-triazol-5-amine], less than 100 nM; in that of `O=C(c1cccs1)n1nc(-c2ccncc2)nc1NCc1ccc(F)cc1` [Cmpd 221, N-[(4-fluorophenyl)methyl]-3-(pyridin-4-yl)-1-[(thiophen-2-yl)carbonyl]-1H-1,2,4-triazol-5-amine], 100 to 1000 nM.
`O=C(c1ccsc1)n1nc(-c2ccccc2)nc1NCc1ccc(F)cc1` [Cmpd 222, N-[(4-fluorophenyl)methyl]-3-phenyl-1-[(thiophen-3-yl)carbonyl]-1H-1,2,4-triazol-5-amine] had an IC50 of less than 100 nM.
As for `O=C(c1cn(-c2ccccn2)nc1NCc1ccc(F)cc1)N1CCCCC1` [Cmpd 225, N-[(4-fluorophenyl)methyl]-4-[(piperidin-1-yl)carbonyl]-1-(pyridin-2-yl)-1H-pyrazol-3-amine], the figure is more than 1000 nM; as for `COc1ccc(CNc2nc(-c3ccccn3)nn2C(=O)c2cccs2)cc1` [Cmpd 226, N-[(4-methoxyphenyl)methyl]-3-(pyridin-2-yl)-1-[(thiophen-2-yl)carbonyl]-1H-1,2,4-triazol-5-amine], more than 1000 nM.
In turn, `COc1ccc(CNc2nc(-c3ccccn3)nn2C(=O)c2ccsc2)cc1` [Cmpd 227, N-[(4-methoxyphenyl)methyl]-3-(pyridin-2-yl)-1-[(thiophen-3-yl)carbonyl]-1H-1,2,4-triazol-5-amine] had an IC50 of 100 to 1000 nM.
In the case of `COc1ccc(CNc2nc(-c3cccnc3)nn2C(=O)c2ccsc2)cc1` [Cmpd 228, N-[(4-methoxyphenyl)methyl]-3-(pyridin-3-yl)-1-[(thiophen-3-yl)carbonyl]-1H-1,2,4-triazol-5-amine] it was more than 1000 nM; in that of `COc1ccc(CNc2nc(-c3ccncc3)nn2C(=O)c2cccs2)cc1` [Cmpd 229, N-[(4-methoxyphenyl)methyl]-3-(pyridin-4-yl)-1-[(thiophen-2-yl)carbonyl]-1H-1,2,4-triazol-5-amine], more than 1000 nM; in that of `COc1ccc(CNc2nc(-c3ccncc3)nn2C(=O)c2ccsc2)cc1` [Cmpd 230, N-[(4-methoxyphenyl)methyl]-3-(pyridin-4-yl)-1-[(thiophen-3-yl)carbonyl]-1H-1,2,4-triazol-5-amine], 100 to 1000 nM.
In the case of `O=C(c1cccc2c1OC(F)(F)O2)n1nc(-c2ccccn2)nc1NCc1ccccc1` [Cmpd 231, N-benzyl-1-[(2,2-difluoro-2H-1,3-benzodioxol-4-yl)carbonyl]-3-(pyridin-2-yl)-1H-1,2,4-triazol-5-amine] it was more than 1000 nM.
As for `O=C(c1cccc2c1OCCO2)n1nc(-c2ccccn2)nc1NCc1ccccc1` [Cmpd 232, N-benzyl-1-[(2,3-dihydro-1,4-benzodioxin-5-yl)carbonyl]-3-(pyridin-2-yl)-1H-1,2,4-triazol-5-amine], the figure is less than 100 nM; as for `COc1cccc(C(=O)n2nc(-c3ccccn3)nc2NCc2ccccc2)c1OC` [Cmpd 233, N-benzyl-1-[(2,3-dimethoxyphenyl)carbonyl]-3-(pyridin-2-yl)-1H-1,2,4-triazol-5-amine], less than 100 nM; as for `COc1ccc(C(=O)n2nc(-c3ccccc3F)cc2NCc2ccccc2)c(OC)c1` [Cmpd 234, N-benzyl-1-[(2,4-dimethoxyphenyl)carbonyl]-3-(2-fluorophenyl)-1H-pyrazol-5-amine], more than 1000 nM.
Consider `COc1ccc(C(=O)n2nc(-c3ccccn3)nc2NCc2ccccc2)c(OC)c1` [Cmpd 235, N-benzyl-1-[(2,4-dimethoxyphenyl)carbonyl]-3-(pyridin-2-yl)-1H-1,2,4-triazol-5-amine], for which the IC50 is less than 100 nM.
Molecule `COc1ccc(C(=O)n2nc(-c3ccccn3)cc2NCc2ccccc2)c(OC)c1` [Cmpd 236, N-benzyl-1-[(2,4-dimethoxyphenyl)carbonyl]-3-(pyridin-2-yl)-1H-pyrazol-5-amine] displayed an IC50 of 100 to 1000 nM.
`Cc1ccc(C(=O)n2nc(-c3ccccn3)nc2NCc2ccccc2)c(C)c1` [Cmpd 237, N-benzyl-1-[(2,4-dimethylphenyl)carbonyl]-3-(pyridin-2-yl)-1H-1,2,4-triazol-5-amine] had a half-maximal inhibitory concentration (IC50) of 100 to 1000 nM.
As for `O=C(c1c(Cl)cccc1Cl)n1nc(-c2ccccn2)nc1NCc1ccccc1` [Cmpd 238, N-benzyl-1-[(2,6-dichlorophenyl)carbonyl]-3-(pyridin-2-yl)-1H-1,2,4-triazol-5-amine], the figure is more than 1000 nM; as for `O=C(c1c(F)cccc1F)n1nc(-c2ccccn2)nc1NCc1ccccc1` [Cmpd 239, N-benzyl-1-[(2,6-difluorophenyl)carbonyl]-3-(pyridin-2-yl)-1H-1,2,4-triazol-5-amine], 100 to 1000 nM.
For `O=C(c1ccccc1Br)n1nc(-c2ccccn2)nc1NCc1ccccc1` [Cmpd 240, N-benzyl-1-[(2-bromophenyl)carbonyl]-3-(pyridin-2-yl)-1H-1,2,4-triazol-5-amine], the concentration for half-maximal inhibition (IC50) was less than 100 nM.
Molecule `O=C(c1ccccc1Br)n1nc(-c2ccccn2)cc1NCc1ccccc1` [Cmpd 241, N-benzyl-1-[(2-bromophenyl)carbonyl]-3-(pyridin-2-yl)-1H-pyrazol-5-amine] yielded an IC50 of 100 to 1000 nM.
Consider `O=C(c1ccccc1Cl)n1nc(-c2ccccc2F)cc1NCc1ccccc1` [Cmpd 242, N-benzyl-1-[(2-chlorophenyl)carbonyl]-3-(2-fluorophenyl)-1H-pyrazol-5-amine], for which the half-inhibitory concentration (IC50) is 100 to 1000 nM.
`O=C(c1ccccc1Cl)n1nc(-c2ccccn2)cc1NCc1ccccc1` [Cmpd 244, N-benzyl-1-[(2-chlorophenyl)carbonyl]-3-(pyridin-2-yl)-1H-pyrazol-5-amine] gave an IC50 of 100 to 1000 nM.
As for `O=C(c1ccccc1Cl)n1nc(-c2ccncc2)nc1NCc1ccccc1` [Cmpd 245, N-benzyl-1-[(2-chlorophenyl)carbonyl]-3-(pyridin-4-yl)-1H-1,2,4-triazol-5-amine], the figure is less than 100 nM; as for `CCc1ccccc1C(=O)n1nc(-c2ccccn2)nc1NCc1ccccc1` [Cmpd 246, N-benzyl-1-[(2-ethylphenyl)carbonyl]-3-(pyridin-2-yl)-1H-1,2,4-triazol-5-amine], 100 to 1000 nM.
Regarding `CCc1ccccc1C(=O)n1nc(-c2ccccn2)cc1NCc1ccccc1` [Cmpd 247, N-benzyl-1-[(2-ethylphenyl)carbonyl]-3-(pyridin-2-yl)-1H-pyrazol-5-amine], the half-inhibitory concentration (IC50) is more than 1000 nM.
Consider `COc1ccc(C(=O)n2nc(-c3ccccn3)nc2NCc2ccccc2)c(F)c1` [Cmpd 248, N-benzyl-1-[(2-fluoro-4-methoxyphenyl)carbonyl]-3-(pyridin-2-yl)-1H-1,2,4-triazol-5-amine], for which the IC50 was less than 100 nM.
For `Cc1ccc(C(=O)n2nc(-c3ccccn3)nc2NCc2ccccc2)c(F)c1` [Cmpd 249, N-benzyl-1-[(2-fluoro-4-methylphenyl)carbonyl]-3-(pyridin-2-yl)-1H-1,2,4-triazol-5-amine], the half-maximal inhibitory concentration (IC50) was less than 100 nM.
In the case of `O=C(c1ccccc1F)n1nc(-c2ccccn2)cc1NCc1ccccc1` [Cmpd 251, N-benzyl-1-[(2-fluorophenyl)carbonyl]-3-(pyridin-2-yl)-1H-pyrazol-5-amine] it was less than 100 nM; in that of `COc1cc(C)ccc1C(=O)n1nc(-c2ccccn2)nc1NCc1ccccc1` [Cmpd 253, N-benzyl-1-[(2-methoxy-4-methylphenyl)carbonyl]-3-(pyridin-2-yl)-1H-1,2,4-triazol-5-amine], less than 100 nM; in that of `COc1ccccc1C(=O)n1nc(-c2cccnn2)nc1NCc1ccccc1` [Cmpd 254, N-benzyl-1-[(2-methoxyphenyl)carbonyl]-3-(pyridazin-3-yl)-1H-1,2,4-triazol-5-amine], less than 100 nM.
As to `COc1ccccc1C(=O)n1nc(-c2ccccn2)cc1NCc1ccccc1` [Cmpd 256, N-benzyl-1-[(2-methoxyphenyl)carbonyl]-3-(pyridin-2-yl)-1H-pyrazol-5-amine], the IC50 lay in the range of 100 to 1000 nM.
`COc1ccccc1C(=O)n1nc(-c2ccncc2)nc1NCc1ccccc1` [Cmpd 257, N-benzyl-1-[(2-methoxyphenyl)carbonyl]-3-(pyridin-4-yl)-1H-1,2,4-triazol-5-amine] showed an IC50 of less than 100 nM.
`COc1ccccc1C(=O)n1nc(-c2cccs2)nc1NCc1ccccc1` [Cmpd 258, N-benzyl-1-[(2-methoxyphenyl)carbonyl]-3-(thiophen-2-yl)-1H-1,2,4-triazol-5-amine] displayed an IC50 of less than 100 nM.
In the case of `Cc1ccccc1C(=O)n1nc(-c2ccccn2)nc1NCc1ccccc1` [Cmpd 259, N-benzyl-1-[(2-methylphenyl)carbonyl]-3-(pyridin-2-yl)-1H-1,2,4-triazol-5-amine] it was less than 100 nM.

One may read the IC50 as the concentration that gives 50% inhibition. Higher therefore signals weaker potency.
